Data as given in patent US20230190761A1, “METHYLENE BLUE STABILIZED MRNA COMPOSITIONS” (ModernaTX, Inc., priority 2020, published 2023).
Values joined by “and” are separate entries in the source; they are usually repeats but may differ in a detail not shown here. Equal entries are not always repeated. “Also recorded” adds a separate entry of the source.

Key:
mRNA-LNP [1] = assay: DLS characterization of mRNA-LNP physical stability in presence of methylene blue; type: physicochemical
From the text: Particle size (e.g., particle diameter) can be determined by Dynamic Light Scattering (DLS). DLS measures a hydrodynamic diameter. Smaller particles diffuse more quickly, leading to faster fluctuations in the scattering intensity and shorter decay times for the autocorrelation function. Larger particles diffuse more slowly, leading to slower fluctuations in the scattering intensity and longer decay times in the autocorrelation function.
In view of the surprising and somewhat counter-intuitive finding that methylene blue enhanced stability of mRNA-LNP formulations, additional experimentation was conducted. The stability of mRNA-LNPs in the presence of increasing levels of methylene blue was investigated upon incubation at 5° C., 25° C. or 40° C. for 10 days. […] In addition to chemical stability, a careful examination of the possible impact of methylene blue on the physical state of the LNP was performed using dynamic light scattering (DLS). This technique is exquisitely sensitive to tiny changes in hydrodynamic nanoparticle size, especially with respect to the formation of larger aggregates known to be a common physical degradation mode of many LNPs.
After the 3 week incubation, samples were analyzed by dynamic light scattering (DLS) to characterize the hydrodynamic diameters of LNPs.
Samples were measured by dynamic light scattering (DLS) in PBS after being filtered through 0.8 μm filters to remove large particulates.

[2] = LC/MS analysis of PEG-lipid stability in presence of methylene blue; type: physicochemical
Procedure: This example describes the effects of methylene blue on lipid components of LNP formulations. PEG-lipid is known to be susceptible to oxidative degradation. Given the degradation mechanism attributed to methylene blue, an accelerated study was performed to evaluate whether the presence of methylene blue adversely affects PEG-lipid stability. Lyso-PEG-DMG is considered a primary bellwether of PEG-lipid degradation. As such, its concentration in samples was measured using liquid chromatography/mass spectrometry (LC/MS) after storage of LNPs at room temperature (FIG. 7A) or 5° C. (FIG. 7B) in the presence of a range of methylene blue concentrations.

mRNA in LNP formulations = assay: mRNA-LNP purity by RP-HPLC and fragment analysis, 40° C. 12 days, light vs dark; type: physicochemical
Procedure: As detailed in this example, samples are labeled as follows: A=0 mM methylene blue; B=0.5 mM methylene blue; C=1 mM methylene blue; D=1.5 mM methylene blue; and E=2.0 mM methylene blue.
After incubating samples at 40° C. for 12 days, either protected from light or unprotected, fragmentation analysis was conducted to evaluate the presence of lipid-RNA adducts.

[3] = system: mRNA in LNP formulation containing two mRNA; assay: Chemical stability of mRNA-LNP after 5 months refrigerated storage; type: physicochemical
Procedure: This example relates to stabilization of mRNA in LNP formulations by the addition of methylene blue over long-term refrigerated storage. […] To confirm that this stabilization effect would also occur with long-term refrigerated storage, a study was conducted to evaluate the effect of various concentrations of methylene blue (0, 0.5, 1, 1.5 and 2.0 mM) on the stability of a lipid nanoparticle formulation containing two distinct mRNA compounds stored at 5° C.
To determine the effects of methylene blue on the chemical stability of mRNA-LNP formulations over long-term refrigerated storage, mRNA purity, mRNA fragmentation, and mRNA-lipid adduct formation were measured over time in mRNA-LNP samples containing varying concentrations of methylene blue (A=0 mM, B=0.5 mM, C=1.0 mM, D=1.5 mM, E=2.0 mM methylene blue). Total purity was determined according to main peak percentage by RP-HPLC (FIG. 13A), fragmentation was determined according to fragmentation analysis (FIG. 13B), and mRNA-lipid adduct formation was determined according to RP-HPLC (FIG. 13C).

lyophilized mRNA-LNP = assay: Stability of lyophilized mRNA-LNP with methylene blue (RP-HPLC); type: physicochemical; details: lyophilized mRNA-LNP powder with 1 mM methylene blue, 1 week at 40° C.
Procedure: To evaluate whether methylene blue could have a stabilization effect on lyophilized powder formulations of mRNA-LNP, studies were performed to compare the effect of 1 mM methylene blue on loss of purity of a lyophilized mRNA-LNP. In this experiment methylene blue was added to LNP immediately prior to lyophilization. The resulting powders (shown in FIG. 15) were stored at −80° C., 5° C. or 40° C. with or without methylene blue.

mRNA-LNP [4] = assay: DOE study of solution composition with and without methylene blue, main peak purity by RP-HPLC; type: physicochemical; details: 2 mM methylene blue, 40° C. ~1 week
From the text: To broadly evaluate the effect of methylene blue under a large number of systematically varied solution conditions, a design of experiment (DOE) approach was utilized.

mRNA [5] = assay: Differential scanning calorimetry of mRNA with methylene blue; type: physicochemical
Procedure: To test the effect of methylene blue on folding and intramolecular hybridization of mRNA, differential scanning calorimetry (DSC) was conducted on samples of mRNA containing no methylene blue, 50 μM methylene blue, or 100 μM methylene blue. […] At higher methylene blue concentrations (approximately 0.5 mM), precipitation of mRNA occurs, but at the concentrations of this experiment the mRNA-dye complex remains soluble. It is notable that the sharp transitions at ˜74° C. and 80° C. are not affected by the presence of dye, whereas there is a massive effect on the least thermally stable transitions occurring in the <60° C. region, shown by the large rightward shift of the curves with the addition of methylene blue. By comparison, therapeutic protein stabilization strategies commonly involve screening of excipient effects on thermal unfolding, however, the thermal shifts observed for optimized protein formulations typically involve thermal shifts of only a few degrees.
The DSC thermogram show the effects on the thermal unfolding profile of mRNA in the presence or absence of […] methylene blue. When the methylene blue-containing sample was dialyzed to remove dye, the resulting thermogram corresponded closely to that of the original no-dye sample. […] All the fine details of the thermal unfolding profile were restored post-dialysis, indicating a restoration of the original structure-function of the mRNA.

mRNA [6] = assay: ITC of dye-mRNA interaction; type: binding

hydrodynamic size or size distribution (polydispersity index) of LNP by DLS (mRNA-LNP [1]; up to 2.0 mM methylene blue, 5 months refrigerated storage): no significant impact
optimal methylene blue concentration with respect to adduct formation ([3]; 5 months refrigerated storage, RP-HPLC): 1.5 mM
main peak purity (lyophilized mRNA-LNP): 30% and 33%
average purity of the 14 samples (mRNA-LNP [4]; 14 buffer/pH/NaCl conditions): 60±6%
main peak mRNA purity (range over samples 15-28) (mRNA-LNP [4]; Tris or phosphate buffer pH 7.0-8.5, 0 or 150 mM NaCl, RP-HPLC): 50-70%
methylene blue concentration with appreciable impact to mRNA conformational stability (DSC) (mRNA [5]): ~10 µM
methylene blue concentration giving dramatic global changes in overall mRNA structure (DSC) (mRNA [5]; 0.3 μM mRNA, 32.5 mM sodium acetate, pH 5.0): ≥ 367.8 µM
folded stability of mRNA (DSC thermogram) (mRNA [5]; 50 μM or 100 μM methylene blue vs no methylene blue): enormous enhancement of folded stability
reversibility of methylene blue binding to mRNA (DSC after dialysis) (mRNA [5]; 100 mM methylene blue, dialyzed to remove dye): reversible
lowest methylene blue concentration affecting the folded structure of mRNA (DSC) (mRNA [5]; mRNA at 0.3 μM): 11.3 µM
methylene blue concentration at which precipitation of mRNA occurs (mRNA [5]; mRNA in solution): approximately 0.5 mM
dissociation constant for the dye-mRNA interaction (ITC) (mRNA [6]): μm dissociation constant
Compound: CN(C)c1ccc2nc3ccc(N(C)C)cc3[s+]c2c1 [methylene blue]
LNP size distributions and average hydrodynamic diameters by DLS (mRNA-LNP [1]; 0.5-2.0 mM methylene blue, 3 weeks refrigerated storage): does not have an impact on the overall lipid nanoparticle structure
hydrodynamic size / physical stability of the LNP by DLS (mRNA-LNP [1]; up to 6 mM methylene blue, 10 days at 5° C., 25° C. and 40° C.): no significant effect on hydrodynamic size of the LNP; also recorded: no impact on the physical stability of the mRNA-LNP
total quantity of PEG-lipid (LC/MS) ([2]; 0, 0.1, 0.5 and 1 mM methylene blue, 1 week at room temperature or 5° C.): no effect on the total quantity of PEG-lipid present
Lyso-PEG-DMG signal (LC/MS) ([2]; 0 to 1.0 mM methylene blue, LNPs at room temperature or 5° C., 1 week): no difference in Lyso-PEG-DMG signal was detected
mRNA stability by RP-HPLC and fragmentation analysis (mRNA in LNP formulations; 12 days, protected from light, 0.5-2.0 mM methylene blue, vs −80 C controls): enhanced the stability of mRNA in LNP formulations
mRNA degradation by RP-HPLC and fragmentation analysis (mRNA in LNP formulations; 12 days, unprotected from light, samples B-E (0.5-2.0 mM methylene blue)): more mRNA degradation than samples stored protected from light or those without methylene blue
adduct formation (mRNA in LNP formulations; protected from light): did not have a detrimental effect on adduct formation
mRNA fragmentation rate ([3]; methylene blue as low as 0.5 mM, 5 months (151 days) refrigerated storage): significantly inhibit mRNA fragmentation rate relative to LNP compositions lacking dye; also recorded: significantly inhibited relative to control
